This experiment concerns Xen29, a Staphylococcus aureus strain. Nature of the experiment: Kirby Bauer disc diffusion assay of Ciprodex-loaded chitosan. The class given is cell-based. The following applies: loaded in chitosan; growth inhibition of Xen29. The source says: FIG. 27 depicts results of the Kirby Bauer disc diffusion assay.
To estimate the concentration of ciprofloxacin released by the chitosan, a standard curve was established using blank paper discs and known dilutions of Ciprodex.
(In general: A growth-free zone around the sample is the usual read-out of agar diffusion tests.)

`O=C(O)c1cn(C2CC2)c2cc(N3CCNCC3)c(F)cc2c1=O` [Ciprofloxacin, ciprofloxacin]: the “bioactivity of loaded Ciprofloxacin” value is recorded as “maintained its bioactivity”.

For the origin of these results see patent publication US20260240644A1, “BIOPOLYMER-BASED TYMPANOSTOMY TUBES WITH PROGRAMMABLE, TUNABLE, AND ON-DEMAND DEGRADATION” (Trustees of Tufts College, priority 2023, published 2026).
